For one experiment, the system named is HCT116-MTAP-KO. The experiment in a line: Compounds cell killing in HCT116 isogenic pair (CellTiter-Glo, 6 days), MTAP-KO cells. It counts as cell-based. The conditions noted are these: Homo sapiens, HCT-116, 144 h, Cell Titer-Glo, 0-10 μM. From the text: (§1) HCT116 cell line (ATCC, CCL-247) was isolated from the colon of an adult with colon cancer. It has a mutation in codon 13 of the ras proto-oncogene and can be used as a positive control for PCR assays of mutation in this codon. HCT116-MTAP-KO was knocked-out-MTAP-gene based HCT116, and a single clone was passed for this assay. HCT116-mock-RNA-KO was knocked-out-mock-gene based HCT116 with MTAP wildtype genotype. The base medium for HCT116 isogenic pair is RPMI 1640, HEPES (Gibco, 22400105). To make the complete growth medium, add the following components to the base medium: fetal bovine serum to a final concentration of 10% (Gibco, 10099-141C). The cell line was grown in a humidified 5% CO2 atmosphere at 37° C. and regularly tested for the presence of mycoplasma with MycoAlert™ PLUS Mycoplasma Detection Kit (Lonza, LT07-710).
(§2) • Seed HCT116-mock-RNA-KO (4E2/well) or HCT116-MTAP-KO (4E2/well) cells into a 96-well plate (Greiner: 655090), 100 µL/well. • Incubate at 37° C., 5% CO2, overnight. • Add 50 μL fresh growth-medium containing serial dilution of compounds for a final compound concentration of 0-10 μM to each well. • Incubate at 37° C., 5% CO2, 6 days. • The cell viability detected by Cell Titer-Glo (Promega, G7573). Add 70 μL of CellTiter-Glo® reagent in each well. • Incubate at room temperature for 10 minutes to stabilize luminescent signal. • Analyze with Microplate Reader (TECAN, SPARK) and fit IC50 using Prism® 9.
Background: Cellular ATP, detected with luciferase, serves as a proxy for viable cell number.

A further experiment concerns HCT116-mock-RNA-KO. Kind of experiment: Compounds cell killing in HCT116 isogenic pair (CellTiter-Glo, 6 days), mock-KO (MTAP wildtype) cells. The conditions noted are these: Homo sapiens, HCT-116, 144 h, Cell Titer-Glo, 0-10 μM. It counts as cell-based.
From the text: as §1, §2

The structures appear in SMILES notation.

A word on the IC50: it is the point on the concentration scale where inhibition reaches its midpoint. High values mean lower potency, low ones higher potency. As for `C[C@H]1CCC[C@@H](c2ccc(C(F)(F)F)cn2)N1C(=O)C1(c2ccc3c(=O)[nH]nc(CN)c3c2)CC1` (racemic) [Example 24, (±)-4-(aminomethyl)-6-(1-((2S,6S)-2-methyl-6-(5-(trifluoromethyl)pyridin-2-yl)piperidine-1-carbonyl)cyclopropyl)phthalazin-1(2H)-one], the IC50 with HCT116-MTAP-KO was 5260 nM; with HCT116-mock-RNA-KO it was above 10000 nM.
For `NCc1n[nH]c(=O)c2ccc(C3(C(=O)N(Cc4ccc(C(F)(F)F)cn4)C4CCCc5cccnc54)CC3)cc12` (centres unmarked) [Example 1, 1-(4-(aminomethyl)-1-oxo-1,2-dihydrophthalazin-6-yl)-N-(5,6,7,8-tetrahydroquinolin-8-yl)-N-((5-(trifluoromethyl)pyridin-2-yl)methyl)cyclopropane-1-carboxamide] the same measures were 98 nM and above 10000 nM.
The like results for `NCc1n[nH]c(=O)c2ccc(C3(C(=O)N(Cc4ccc(C(F)(F)F)cn4)[C@@H]4CCCc5cccnc54)CC3)cc12` [Example 2A, (R)-1-(4-(aminomethyl)-1-oxo-1,2-dihydrophthalazin-6-yl)-N-(5,6,7,8-tetrahydroquinolin-8-yl)-N-((5-(trifluoromethyl)pyridin-2-yl)methyl)cyclopropane-1-carboxamide] were, in that order, 98 nM and 3680 nM.
The like results for `NCc1n[nH]c(=O)c2ccc(C3(C(=O)N(Cc4ccc(C(F)(F)F)cn4)[C@H]4CCCc5cccnc54)CC3)cc12` [Example 2B, (S)-1-(4-(aminomethyl)-1-oxo-1,2-dihydrophthalazin-6-yl)-N-(5,6,7,8-tetrahydroquinolin-8-yl)-N-((5-(trifluoromethyl)pyridin-2-yl)methyl)cyclopropane-1-carboxamide] were, in that order, above 10000 nM and above 10000 nM.
As to `NCc1n[nH]c(=O)c2ccc(C3(C(=O)N(Cc4ccc(-c5c(Cl)cccc5Cl)cn4)C4CCCc5cccnc54)CC3)cc12` (centres unmarked) [Example 3, 1-(4-(aminomethyl)-1-oxo-1,2-dihydrophthalazin-6-yl)-N-((5-(2,6-dichlorophenyl)pyridin-2-yl)methyl)-N-(5,6,7,8-tetrahydroquinolin-8-yl)cyclopropane-1-carboxamide], the IC50 in the experiment on HCT116-MTAP-KO was determined as 57 nM; with HCT116-mock-RNA-KO, 3870 nM.
The like results for `NCc1n[nH]c(=O)c2ccc(C3(C(=O)N(Cc4ccc(-c5c(Cl)cccc5Cl)cn4)[C@@H]4CCCc5cccnc54)CC3)cc12` [Example 4A, (R)-1-(4-(aminomethyl)-1-oxo-1,2-dihydrophthalazin-6-yl)-N-((5-(2,6-dichlorophenyl)pyridin-2-yl)methyl)-N-(5,6,7,8-tetrahydroquinolin-8-yl)cyclopropane-1-carboxamide] were, in that order, 85 nM and 2950 nM.
For `NCc1n[nH]c(=O)c2ccc(C3(C(=O)N(Cc4ccc(-c5c(Cl)cccc5Cl)cn4)[C@H]4CCCc5cccnc54)CC3)cc12` [Example 4B, (S)-1-(4-(aminomethyl)-1-oxo-1,2-dihydrophthalazin-6-yl)-N-((5-(2,6-dichlorophenyl)pyridin-2-yl)methyl)-N-(5,6,7,8-tetrahydroquinolin-8-yl)cyclopropane-1-carboxamide] the same measures were 1540 nM and 5910 nM.
The like results for `CC1(C)COc2nc(CN(C(=O)C3(c4ccc5c(=O)[nH]nc(CN)c5c4)CC3)C3CCCc4cccnc43)ccc21` (centres unmarked) [Example 5, 1-(4-(aminomethyl)-1-oxo-1,2-dihydrophthalazin-6-yl)-N-((3,3-dimethyl-2,3-dihydrofuro[2,3-b]pyridin-6-yl)methyl)-N-(5,6,7,8-tetrahydroquinolin-8-yl)cyclopropane-1-carboxamide] were, in that order, 707 nM and above 10000 nM.
Turning to `CC(C)(O)c1ccc(CN(C(=O)C2(c3ccc4c(=O)[nH]nc(CN)c4c3)CC2)C2CCCc3cccnc32)nc1` (centres unmarked) [Example 6, 1-(4-(aminomethyl)-1-oxo-1,2-dihydrophthalazin-6-yl)-N-((5-(2-hydroxypropan-2-yl)pyridin-2-yl)methyl)-N-(5,6,7,8-tetrahydroquinolin-8-yl)cyclopropane-1-carboxamide], the half-inhibitory concentration (IC50) in the experiment with HCT116-MTAP-KO is 2560 nM; in the experiment with HCT116-mock-RNA-KO, above 10000 nM.
For `Cc1cc(CN(C(=O)C2(c3ccc4c(=O)[nH]nc(CN)c4c3)CC2)C2CCCc3cccnc32)ncc1C(F)(F)F` (centres unmarked) [Example 7, 1-(4-(aminomethyl)-1-oxo-1,2-dihydrophthalazin-6-yl)-N-((4-methyl-5-(trifluoromethyl)pyridin-2-yl)methyl)-N-(5,6,7,8-tetrahydroquinolin-8-yl)cyclopropane-1-carboxamide] the same measures were 285 nM and above 10000 nM.
As to `Cc1nc(CN(C(=O)C2(c3ccc4c(=O)[nH]nc(CN)c4c3)CC2)C2CCCc3cccnc32)ccc1-c1ccccc1` (centres unmarked) [Example 8, 1-(4-(aminomethyl)-1-oxo-1,2-dihydrophthalazin-6-yl)-N-((6-methyl-5-phenylpyridin-2-yl)methyl)-N-(5,6,7,8-tetrahydroquinolin-8-yl)cyclopropane-1-carboxamide], the IC50 was found to be 255 nM in the experiment with HCT116-MTAP-KO and 5250 nM in the experiment with HCT116-mock-RNA-KO.
With `NCc1n[nH]c(=O)c2ccc(C3(C(=O)N(Cc4ccc(C(F)(F)F)cn4)Cc4c(F)cccc4Cl)CC3)cc12` [Example 9, 1-(4-(aminomethyl)-1-oxo-1,2-dihydrophthalazin-6-yl)-N-(2-chloro-6-fluorobenzyl)-N-((5-(trifluoromethyl)pyridin-2-yl)methyl)cyclopropane-1-carboxamide], the IC50 with HCT116-MTAP-KO amounted to 222 nM; with HCT116-mock-RNA-KO it was 4670 nM.
For `NCc1n[nH]c(=O)c2ccc(C3(C(=O)N(Cc4ccc(-c5ccccc5)cn4)C4CCCc5cccnc54)CC3)cc12` (centres unmarked) [Example 10, 1-(4-(aminomethyl)-1-oxo-1,2-dihydrophthalazin-6-yl)-N-((5-phenylpyridin-2-yl)methyl)-N-(5,6,7,8-tetrahydroquinolin-8-yl)cyclopropane-1-carboxamide] the same measures were 18 nM and 7230 nM.
As for `NCc1n[nH]c(=O)c2ccc(C3(C(=O)N(Cc4ccc(-c5ccccc5)cn4)[C@@H]4CCCc5cccnc54)CC3)cc12` [Example 11A, (R)-1-(4-(aminomethyl)-1-oxo-1,2-dihydrophthalazin-6-yl)-N-((5-phenylpyridin-2-yl)methyl)-N-(5,6,7,8-tetrahydroquinolin-8-yl)cyclopropane-1-carboxamide], the IC50 was found to be 57 nM with HCT116-MTAP-KO and 2790 nM with HCT116-mock-RNA-KO.
The like results for `NCc1n[nH]c(=O)c2ccc(C3(C(=O)N(Cc4ccc(-c5ccccc5)cn4)[C@H]4CCCc5cccnc54)CC3)cc12` [Example 11B, (S)-1-(4-(aminomethyl)-1-oxo-1,2-dihydrophthalazin-6-yl)-N-((5-phenylpyridin-2-yl)methyl)-N-(5,6,7,8-tetrahydroquinolin-8-yl)cyclopropane-1-carboxamide] were, in that order, 2090 nM and above 10000 nM.
For `Cc1nc(CN(C(=O)C2(c3ccc4c(=O)[nH]nc(CN)c4c3)CC2)C2CCCc3cccnc32)sc1I` (centres unmarked) [Example 12, 1-(4-(aminomethyl)-1-oxo-1,2-dihydrophthalazin-6-yl)-N-((5-iodo-4-methylthiazol-2-yl)methyl)-N-(5,6,7,8-tetrahydroquinolin-8-yl)cyclopropane-1-carboxamide] the same measures were 482 nM and 6010 nM.
